Data from patent US11332440B2, “4-oxo-alkylated tetramic acid compound, and preparation method thereof” (priority 2017, dated 2022).

System: Drosophilae containing and expressing human Abeta42 gene
Assay: Pavlov's olfactory-related instantaneous memory test in Drosophila
Format: in vivo
Conditions: increasing dosage, compared with memantine hydrochloride; FIG. 3
Description: Drosophila has a classical learning and memory paradigm, known as Pavlov's olfactory-related instantaneous memory. During the training program, a group of about 100 drosophilae were exposed sequentially to two odors, i.e., 3-octanol and 4-methylcyclohexanol, each odor for 60 seconds, and to fresh air for 45 seconds therebetween. During exposure to the first odor, the drosophilae were electrocuted on their feet (1.5-second pulses at 3.5-second intervals, 60V), while no electrocution was exerted during exposure to the second odor. In order to detect “instantaneous memory” (also known as “learning”), drosophilae were transferred to the selection area in the T maze immediately after training and forced to choose between the two odors. The drosophilae in each T-maze arm were then captured, anesthetized, and counted. The behavior index was calculated from the distribution of drosophilae in the T maze. […] In each experiment, the age of the control group was matched with that of the experimental group.
Pharmacodynamic evaluation of the candidate compounds: Drosophilae containing and expressing human Abeta42 gene were selected as a diseased control, and drosophilae containing but not expressing human Abeta42 gene were selected as a healthy control. The day after emergence of the drosophilae, male drosophilae were selected and fed. […] The above memory test was performed on the drosophilae on the tenth day.

SMILES	dose-effect relationship to improve memory of drosophilae with Alzheimer's disease
O=C1C=C(OCc2cccc3ccccc23)[C@H](Cc2ccccc2)N1 [Compound 51311]	eventually reaches or exceeds the level of the activity of the positive compound memantine hydrochloride
O=C1C=C(OCc2cccs2)[C@H](Cc2ccccc2)N1 [Compound 51151]	eventually reaches or exceeds the level of the activity of the positive compound memantine hydrochloride
CC(=O)Oc1ccc(COC2=CC(=O)N[C@H]2Cc2ccccc2)cc1 [Compound 51351]	eventually reaches or exceeds the level of the activity of the positive compound memantine hydrochloride
O=C1C=C(OCc2ccccc2F)[C@H](Cc2ccccc2)N1 [Compound 51121]	eventually reaches or exceeds the level of the activity of the positive compound memantine hydrochloride
